US8541670B2, “Compositions and methods for inhibiting tumor cell growth” (priority 2007, dated 2013)
Where no end group is shown, it is not given here. red fluorescent dye = not defined here

How the values were obtained:
AKT2 = AKT2 (Homo sapiens, UniProt P31751); test: In vitro kinase assay AKT2; type: biochemical; conditions: ten times higher concentration than 0.1 μM
Description: (§1) As a specific substrate, the phosphorylation level of GSK-3[…] at Ser-9 was also evaluated. […] The decrease was specific to the AKT phosphorylation site on GSK-3[…] at Ser-9, since a change in the phosphorylation level of GSK-3[…] at Tyr-216 or GSK-3[…] at Tyr-279 was not observed. Moreover, the in vivo reduction of the phosphorylation of AKT substrates was more obvious at the injection site, since a significant change in the phosphorylation of AKT substrates in the frontal cortex or cerebellum between the two hemispheres was not observed. […] To test the specificity/selectivity of ZaTa as the inhibitor of AKT1 versus the other major kinases, a series of in vitro kinase assays was performed at IC50 for AKT1 and at ten times higher concentrations. A panel of the following 32 kinases was first tested in vitro using the active form of each kinase and a specific substrate: AKT2, AKT3, PKA, PKC[…], PKC, PI3K[…], PI3K[…], PI3K, SGK, PAK2, PAK3, SAPK2/p38, Abl, CaMKII, CDK1/cyclinB, CDK5/p35, CK1, CK2, CSK, GSK3[…], GSK3[…], JNK1[…]1, MAPK1, p70S6K, PDGFR[…], PDGFR[…], PDK1, PKG1[…], TrkB, JAK2, JAK3, and Syk. […] However, at ten times higher concentration, ZaTa inhibited AKT2 (63%), PI3K[…] (72%), p70S6K (64%), SGK (73%), PAK3 (83%), JAK3 (79%), TrkB (84%), and Abl (42%). […]

AKT = test: Cell penetration and co-localization of fluorescently labeled ZaTa with AKT; type: cell-based; conditions: immunofluorescence
From the text: Peptides can be very effective inhibitors since they efficiently bind to and inhibit enzymatic activity. However, intracellular delivery of peptides can limit their use. With the exception of a few peptides known as cell-penetrating peptides (CPPs), which have been recognized for their use in site-specific drug delivery, inhibitory peptides can have limited intracellular accumulation in in vivo enzymatic studies. […] Based on the primary structure of the ZaTa peptide (i.e., a peptide having a basic arm of several basic residues at the N-terminus and a polar arm composed of several residues with free hydroxyl group at the C-terminus) and in vivo inhibitory effect in the brain, it was determined whether ZaTa peptide was a CPP. The ZaTa peptide was labeled with a red fluorescent dye at its N-terminus given that its C-terminus was important for inhibitory activity. The efficiency of the labeling and the purity of the labeled peptide were assessed by mass spectrometry.
These different localization patterns of ZaTa within the cell were usually accompanied with redistribution of AKT to the site of ZaTa.
Cell cultures were analyzed by growing cells (1×10^4) on coverslips, fixation for 10 minutes in phosphate-buffered saline (PBS) plus 3.7% formaldehyde, and permeabilization for 2 minutes with cold acetone. […]

PI3K[…] = test: In vitro kinase assay PI3K[…]; type: biochemical; conditions: ten times higher concentration than 0.1 μM
Description: as §1

p70S6K = biological target: T1, p70S6K (Mus musculus, UniProt Q8BSK8); test: In vivo selectivity, western blot of phosphorylated substrate after injection into one hemisphere; conditions: versus DMSO hemisphere
T1 construct: from tissue; host or cells: mouse brain hemisphere
T1 sequence (Q8BSK8 whole entry): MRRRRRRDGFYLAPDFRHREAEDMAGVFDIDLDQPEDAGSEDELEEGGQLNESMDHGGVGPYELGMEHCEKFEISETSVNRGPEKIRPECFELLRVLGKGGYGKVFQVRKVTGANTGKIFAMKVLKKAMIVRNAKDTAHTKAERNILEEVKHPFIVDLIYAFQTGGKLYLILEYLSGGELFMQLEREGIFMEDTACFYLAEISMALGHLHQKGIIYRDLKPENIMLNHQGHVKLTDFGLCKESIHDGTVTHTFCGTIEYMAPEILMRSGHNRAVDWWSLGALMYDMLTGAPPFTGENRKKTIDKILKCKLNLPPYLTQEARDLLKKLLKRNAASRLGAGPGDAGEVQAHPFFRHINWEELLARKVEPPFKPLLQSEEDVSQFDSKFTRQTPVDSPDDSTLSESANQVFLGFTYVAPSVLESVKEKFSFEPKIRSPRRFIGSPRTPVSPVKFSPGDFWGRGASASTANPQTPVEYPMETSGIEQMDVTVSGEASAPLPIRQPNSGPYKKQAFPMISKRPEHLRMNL
Description: To analyze in vivo selectivity, ZaTa was injected into one hemisphere and DMSO in the other hemisphere, as above, and a series of western blot analyses was preformed with phospho-specific antibodies which recognize a phosphorylated substrate or each one of the kinases that ZaTa inhibited at higher concentrations in vitro. […] Given the high functional and structural homology between p70S6K and AKT, the in vivo inhibitory effect of ZaTa on p70S6K was contemplated. Furthermore, the in vivo effect of ZaTa on the phosphorylation levels of substrates for PKA, PKC, CDKs using phospho-specific antibodies recognizing the phosphorylated consensus sites of these kinases was analyzed. In contrast to the consistent decrease in phosphorylation of AKT substrates, significant changes in the phosphorylation level of PKA, PKC and CDKs substrates was not observed after in vivo injection of ZaTa.
(§2) Phosphorylation sites for kinases analyzed herein included Ser-235/236 S6 (a substrate for p70S6K), Tyr-207 CRKL (a substrate for Abl; Zipfel, et al. (2004) supra), Ser-241 PDK1 (a substrate for PI3K), Tyr-1022/1023 JAK1 (a substrate for JAK3; Wang, et al. (2003) supra), Ser-421 Huntingtin (a substrate for SGK; Rangone, et al. (2004) supra), Tyr-783 PLC (a substrate for TrkB; Middlemas, et al. (1994) supra), and Ser-338 cRaf (a substrate for PAK3; King, et al. (1998) supra).

SGK = biological target: T2, SGK (Homo sapiens, UniProt O00141); test: In vitro kinase assay SGK; type: biochemical; conditions: ten times higher concentration than 0.1 μM
T2 construct: endogenous in cells
T2 sequence (O00141 1-431): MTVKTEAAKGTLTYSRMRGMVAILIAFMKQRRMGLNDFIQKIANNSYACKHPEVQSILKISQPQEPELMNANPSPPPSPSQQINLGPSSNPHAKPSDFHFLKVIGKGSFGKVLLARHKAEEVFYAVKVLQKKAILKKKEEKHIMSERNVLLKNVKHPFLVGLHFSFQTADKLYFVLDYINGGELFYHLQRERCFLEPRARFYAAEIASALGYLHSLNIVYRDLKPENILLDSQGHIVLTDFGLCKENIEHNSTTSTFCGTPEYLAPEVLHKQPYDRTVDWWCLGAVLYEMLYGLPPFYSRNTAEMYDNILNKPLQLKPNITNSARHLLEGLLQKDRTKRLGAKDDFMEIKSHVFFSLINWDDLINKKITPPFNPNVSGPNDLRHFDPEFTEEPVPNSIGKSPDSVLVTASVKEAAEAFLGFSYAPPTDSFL
Description: as §1

PI3K = test: Cell-based kinase assay, phosphorylation of intracellular substrate (Ser-241 PDK1)
Description: As a specific substrate, the phosphorylation level of GSK-3[…] at Ser-9 was also evaluated. […] The decrease was specific to the AKT phosphorylation site on GSK-3[…] at Ser-9, since a change in the phosphorylation level of GSK-3[…] at Tyr-216 or GSK-3[…] at Tyr-279 was not observed. Moreover, the in vivo reduction of the phosphorylation of AKT substrates was more obvious at the injection site, since a significant change in the phosphorylation of AKT substrates in the frontal cortex or cerebellum between the two hemispheres was not observed. […] To test the specificity/selectivity of ZaTa as the inhibitor of AKT1 versus the other major kinases, a series of in vitro kinase assays was performed at IC50 for AKT1 and at ten times higher concentrations. […]
as §2

AKT2, sequence (P31751 whole entry, species assumed): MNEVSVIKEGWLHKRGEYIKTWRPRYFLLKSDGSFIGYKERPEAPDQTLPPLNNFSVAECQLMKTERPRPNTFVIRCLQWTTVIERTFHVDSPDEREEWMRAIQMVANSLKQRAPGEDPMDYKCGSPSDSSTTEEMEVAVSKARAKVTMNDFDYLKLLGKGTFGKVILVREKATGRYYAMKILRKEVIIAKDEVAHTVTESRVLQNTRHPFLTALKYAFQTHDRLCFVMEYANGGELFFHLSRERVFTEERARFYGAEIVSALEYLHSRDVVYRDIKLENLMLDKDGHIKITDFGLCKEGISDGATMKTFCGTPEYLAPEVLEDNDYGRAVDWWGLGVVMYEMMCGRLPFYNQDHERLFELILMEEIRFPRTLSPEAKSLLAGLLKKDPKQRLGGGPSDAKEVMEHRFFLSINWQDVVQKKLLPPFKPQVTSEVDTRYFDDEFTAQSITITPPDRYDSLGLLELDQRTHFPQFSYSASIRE

Substance	inhibition of AKT2 (AKT2)	phosphorylation level of AKT substrates in cells entered by ZaTa (AKT)	inhibition of PI3K[…] (PI3K[…])	in vivo inhibition of p70S6K (p70S6K)	inhibition of SGK (SGK)	inhibition of PI3K in cells (PI3K)
AKRVKGRTWTLCGTPEY [ZaTa]	63%	decrease in the phosphorylation level of AKT substrates	72%	potent in vivo inhibition	73%	–
labeled ZaTa: ZaTa peptide labeled with a red fluorescent dye at its N-terminus ({red fluorescent dye}-AKRVKGRTWTLCGTPEY; reading uncertain)	–	–	–	–	–	did not cause inhibition
